Eight molecules from patent US11155546B2, “4,6,7-trisubstituted 1,2-dihydropyrrolo[3,4-c]pyridin/pyrimidin-3-one derivatives and uses thereof” (SHANGHAI HAIYAN PHARMACEUTICAL TECHNOLOGY CO., LTD., priority 2017, dated 2021) can be followed below.

In one data set the target is wild-type EGFR kinase (Homo sapiens (Human), UniProt P00533). Description: Wild type EGFR kinase inhibition test (z-lyte). The following applies: 10 μM ATP; read-out: EGFR WT IC50. Format: biochemical. Summed up: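 Z-lyte FRET read-out, emission ratio coumarin 450 nm/fluorescein 520 nm converted to phosphorylation ratio, then inhibition relative to control. IC50 obtained by curve fitting.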

In a further data set the target is βBTK Y223 (Homo sapiens (Human), UniProt Q06187). Briefly: Intracellular βBTK Y223 phosphorylation HTRF in Ramos cells. It counts as cell-based. How it is done: The compound was predissolved in 100% DMSO. […] 20 μl of lysate (4× lysate: blocked mother liquor is 25:1) was added to each well and incubated for 30 minutes at 25° C. on a shaker. It was shaken on an oscillator at 800 rpm for 1 minute. […] The half-inhibitory concentration IC50 was calculated by fitting with XLFIT 5.0 software (IDBS, UK).
For orientation: TR-FRET usually uses a lanthanide donor and a delayed reading to cut background.

Another data set concerns the target BTK WT (Homo sapiens (Human), UniProt Q06187). Briefly: Lantha screening kinase reaction, inhibition of BTK WT. It counts as biochemical. Summed up:
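Wild-type BTK kinase reaction with compound at 10-0.005 μM final, 60 minutes at 25° C in the dark; stopped with 5 mM EDTA plus 0.2 nM Tb PY20 antibody, 30 minutes. TR-FRET 520/500 nm ratio gave inhibition versus enzyme-only and blank wells; IC50 from curve fitting.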

Another data set is described as follows: in vivo. How it is done: Test Animals: ICR mice, weight 28-30 g, male, totally 12, purchased from SLAC Laboratory Animal Co., Ltd. Mice were fasting one night before administration and freely fed 4 hours after administration.
Administration and Blood collection: 6 mice were administered intragastrically (PO) in a administered dosage of 30 mg/kg and a administered volume of 10 mL/kg. One administration route was subjected with 6 mice, blood samples of three mice were collected at one time point, and blood samples of another three mice were collected at alternate time point alternately. Blood was collected at 8 time points of 0.083, 0.25, 0.5, 1, 2, 4, 8, 24 h after administration respectively.
Animals were manually controlled at the time of collection and approximately 80 μL of blood was collected from the mice fundus venous plexus into a tube containing K2EDTA. The collected blood sample was put on wet ice, centrifuged within 15 min (8000 rpm, 4 min at 4° C.), and then the plasma sample was taken and stored at minus 20° C. till analysis. The compounds were prepared on the day of the experiment.
Solvent excipient information: DMSO (brand: Sigma, batch number: SHBD2446V); 2-hydroxypropyl-3-cyclodextrin (brand: Sigma, batch number: BCBN8227V), acetic acid (brand: Sinopharm Group, batch number: 20150616), sodium acetate (Brand: GENERAL-REAGENT, batch number: P1246037).
Preparation of a 3 mg/mL PO dosing solution: the solvent was a solution of 5% DMSO and 95% PH4.5 (sodium acetate-acetate) in 20% of 2-hydroxypropyl-β-cyclodextrin.
Analytical method: Plasma samples were analyzed by liquid chromatography-tandem mass spectrometry (Instrument type: Triple Quad™ 4000).
Preparation of the standard curve: preparing a standard curve of the test compound 1n the plasma matrix of ICR mice with a linear range of 1.00-3000 ng/mL, and preparing control samples at low, medium and high concentrations of 3 ng/mL, 500 ng/mL, and 2400 ng/mL respectively.
Treatment of biological samples: the frozen plasma samples were thawed on ice, and after the samples were thawed, they were vortexed on a vortex for 5 min. 20 μL of plasma sample was added to a 96-well plate, and 200 μL of acetonitrile (brand: Merck, Lot: 1854029643) containing an internal standard dexamethasone (Brand: NIFDC, Lot: 1N2V-DPGY, 2000 ng/mL) was added to precipitate protein, which were vortexed for 5 min, and then centrifuged at 3700 rpm and 4° C. for 15 min. The supernatant was extracted and twice centrifuged under the same conditions, and finally 2 μL of the supernatant solution was analyzed by LC-MS/MS.

The mark [1] stands for this setting: male, ICR, mouse, in vivo, po, 30 mg/kg.

Each structure is given as a SMILES string.

Chain of wild-type EGFR kinase (P00533 25-1210): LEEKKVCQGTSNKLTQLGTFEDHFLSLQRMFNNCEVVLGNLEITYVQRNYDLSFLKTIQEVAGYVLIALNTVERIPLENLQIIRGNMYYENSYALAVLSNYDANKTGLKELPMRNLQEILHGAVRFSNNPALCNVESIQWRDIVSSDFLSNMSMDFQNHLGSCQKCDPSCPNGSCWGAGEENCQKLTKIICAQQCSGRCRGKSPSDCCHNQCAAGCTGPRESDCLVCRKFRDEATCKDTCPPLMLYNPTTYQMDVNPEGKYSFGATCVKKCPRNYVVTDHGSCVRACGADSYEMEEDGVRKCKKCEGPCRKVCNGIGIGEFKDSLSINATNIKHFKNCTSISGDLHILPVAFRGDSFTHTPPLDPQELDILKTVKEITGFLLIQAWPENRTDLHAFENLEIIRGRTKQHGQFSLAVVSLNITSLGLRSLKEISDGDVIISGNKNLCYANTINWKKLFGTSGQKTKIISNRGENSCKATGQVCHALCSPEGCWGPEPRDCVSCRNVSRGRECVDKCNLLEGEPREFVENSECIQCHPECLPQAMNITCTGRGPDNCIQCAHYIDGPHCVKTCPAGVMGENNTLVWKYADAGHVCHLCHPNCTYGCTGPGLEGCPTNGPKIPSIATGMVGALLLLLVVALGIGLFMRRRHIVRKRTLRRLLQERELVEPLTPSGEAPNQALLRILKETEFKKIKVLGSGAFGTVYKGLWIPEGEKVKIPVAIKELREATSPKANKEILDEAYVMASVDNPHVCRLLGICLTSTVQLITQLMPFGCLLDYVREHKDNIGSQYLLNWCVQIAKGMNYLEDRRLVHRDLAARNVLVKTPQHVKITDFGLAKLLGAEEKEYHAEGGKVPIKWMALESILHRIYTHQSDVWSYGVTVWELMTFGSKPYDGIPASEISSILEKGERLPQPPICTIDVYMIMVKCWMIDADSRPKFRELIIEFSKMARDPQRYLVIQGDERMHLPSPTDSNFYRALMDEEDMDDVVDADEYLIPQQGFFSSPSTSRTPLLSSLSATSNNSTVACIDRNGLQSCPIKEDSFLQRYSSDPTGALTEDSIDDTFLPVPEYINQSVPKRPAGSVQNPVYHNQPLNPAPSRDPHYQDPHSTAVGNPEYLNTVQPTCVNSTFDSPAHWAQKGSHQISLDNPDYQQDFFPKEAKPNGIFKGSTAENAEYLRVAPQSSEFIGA
Chain of βBTK Y223 (Q06187 whole entry): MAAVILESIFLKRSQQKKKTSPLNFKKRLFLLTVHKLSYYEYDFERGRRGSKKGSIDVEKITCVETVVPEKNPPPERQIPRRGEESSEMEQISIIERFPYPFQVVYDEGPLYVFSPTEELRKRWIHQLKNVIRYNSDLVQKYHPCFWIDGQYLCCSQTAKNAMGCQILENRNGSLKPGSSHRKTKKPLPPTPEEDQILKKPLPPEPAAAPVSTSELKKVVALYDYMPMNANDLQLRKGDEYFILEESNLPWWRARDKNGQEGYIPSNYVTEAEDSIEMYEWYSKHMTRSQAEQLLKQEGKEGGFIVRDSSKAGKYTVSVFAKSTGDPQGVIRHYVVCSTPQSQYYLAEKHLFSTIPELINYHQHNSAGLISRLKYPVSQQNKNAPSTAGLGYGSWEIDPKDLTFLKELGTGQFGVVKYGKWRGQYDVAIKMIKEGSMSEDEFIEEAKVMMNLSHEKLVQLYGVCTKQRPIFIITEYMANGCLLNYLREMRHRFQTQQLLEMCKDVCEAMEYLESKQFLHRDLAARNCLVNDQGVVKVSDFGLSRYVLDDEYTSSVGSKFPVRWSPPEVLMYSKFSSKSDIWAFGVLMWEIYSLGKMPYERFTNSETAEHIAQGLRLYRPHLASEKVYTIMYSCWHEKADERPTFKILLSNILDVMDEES
Chain of BTK WT (Q06187 whole entry): as above

On to `C=CC(=O)N1CCCC(Nc2nc(-c3cnn(C)c3)c3c(c2F)CNC3=O)C1` (stereo not drawn) [Compound G-7, 6-(1-acryloylpiperidin-3-ylamino)-7-fluoro-4-(1-methyl-1H-pyrazole-4-yl)-1H-pyrrolo[3,4-c]pyridine-3(2H)-one], for which the IC50 at wild-type EGFR kinase was determined as 3950 nM. The molecule also displayed a 50% inhibitory concentration (IC50) on βBTK Y223 of 11 nM. This molecule displayed a 50% inhibitory concentration (IC50) against BTK WT of 35 nM. Further, in the data set “in vivo” (setting [1]), the AUC was 1330 ng·h/mL, the maximum concentration (Cmax) was found to be 1830 ng/mL, the Tmax is 4.8 min and the bioavailability is 25.4%. The molecule also showed a half-life in “in vivo” (setting [1]) of 93 min.

`C=CC(=O)N1CCCC(Nc2nc(Nc3ccc(N4CCOCC4)cc3)c3c(c2F)CNC3=O)C1` (stereo not drawn) [Compound G-14]: the concentration for half-maximal inhibition (IC50) on wild-type EGFR kinase came to 4130 nM. In addition, at βBTK Y223, the IC50 turned out to be 3 nM. At BTK WT, this molecule gave an IC50 of 3 nM. Also, in the data set “in vivo” (mouse, in vivo, po, 30 mg/kg), the “Area under curve AUC” value was 1072 ng·h/mL, the “Maximum blood concentration Cmax” value is given as 1240.0 ng/mL, the “Oral relative bioavailability F (%)” value stood at 13.7% and the “Tmax” value came out at 4.8 min. Besides, the “half-time T1/2” value in the data set “in vivo” (mouse, in vivo, po, 30 mg/kg) turned out to be 148 min.

As for `C=CC(=O)N1CC(Nc2nc(-c3cnn(C)c3)c3c(c2F)CNC3=O)CCC1C` (stereo not drawn) [Compound G-26, 6-(1-acryloyl-6-methylpiperidin-3-ylamino)-7-fluoro-4-(1-methyl-1H-pyrazole-4-yl)-1H-pyrrolo[3,4-c]pyridine-3(2H)-one], the IC50 on wild-type EGFR kinase worked out at 6690 nM. Further, on βBTK Y223, half-maximal inhibition (IC50) required 47 nM. Also, half-maximal inhibition against BTK WT (IC50) required 27 nM. In addition, in the data set “in vivo” (setting [1]), the AUC amounted to 1290 ng·h/mL, the concentration peaked (Cmax) at 2400 ng/mL, the Tmax turned out to be 4.8 min and the bioavailability came to 13.1%. The half-life in “in vivo” (setting [1]) was 127 min.

As for `C=CC(=O)N1CCCC(Nc2nc(Nc3ccc(N4CCOCC4)cc3F)c3c(c2F)CNC3=O)C1` (stereo not drawn) [Compound G-31], at wild-type EGFR kinase, the IC50 came out at 7930 nM. Moreover, the IC50 on βBTK Y223 was 11 nM. At BTK WT, this molecule showed an IC50 of 7 nM. For the same molecule, in “in vivo” (mouse, in vivo, po, 30 mg/kg), the “Area under curve AUC” value is 1839 ng·h/mL, the “Maximum blood concentration Cmax” value came out at 1237.0 ng/mL, the “Oral relative bioavailability F (%)” value is reported as 28.2% and the “Tmax” value was 15 min. For the same molecule, in the data set “in vivo” (mouse, in vivo, po, 30 mg/kg), the “half-time T1/2” value was found to be 103 min.

For `C=CC(=O)N1CCCC(Nc2nc(Nc3ccc(N4CCOCC4)c(Cl)c3)c3c(c2F)CNC3=O)C1` (stereo not drawn) [Compound G-39], the IC50 on wild-type EGFR kinase stood at 6310 nM. The same molecule yielded an IC50 against βBTK Y223 of 3 nM. The molecule also came in with an IC50 on BTK WT of 2 nM. Besides, in the data set “in vivo” (mouse, in vivo, po, 30 mg/kg), the “Area under curve AUC” value came to 1182 ng·h/mL, the “Maximum blood concentration Cmax” value amounted to 1501.0 ng/mL, the “Oral relative bioavailability F (%)” value turned out to be 15.2% and the “Tmax” value worked out at 4.8 min. The “half-time T1/2” value in the data set “in vivo” (mouse, in vivo, po, 30 mg/kg) amounted to 138 min.

As for `C=CC(=O)N1CCCC(N(C)c2nc(-c3cnn(C)c3)c3c(c2F)CNC3=O)C1` (stereo not drawn) [Compound G-60, 6-((1-acryloylpiperidin-3-yl)(methyl)amino)-7-fluoro-4-(1-methyl-1H-pyrazole-4-yl)-1H-pyrrolo[3.4-c]pyridine-3 (2H)-one], at wild-type EGFR kinase, the IC50 was above 10000 nM. For the same molecule, the IC50 at βBTK Y223 came to 24 nM. Also, at BTK WT, the IC50 was determined as 9 nM. For the same molecule, in “in vivo” (ICR mice, PO 30 mg/kg, pairs G-7/G-60, G-14/G-71, G-23/G-72), the “efficacy of the compound in mice compared with the compound without substituent on the nitrogen atom attached to the piperidine ring” value is given as “significantly lower”. In addition, in the data set “in vivo” (mouse, in vivo, po, 30 mg/kg), the “Area under curve AUC” value was 109 ng·h/mL, the “Maximum blood concentration Cmax” value is on record as 351.7 ng/mL, the “Oral relative bioavailability F (%)” value turned out to be 3% and the “Tmax” value turned out to be 4.8 min. Also, the “half-time T1/2” value in “in vivo” (mouse, in vivo, po, 30 mg/kg) turned out to be 634.2 min.

Regarding `C=CC(=O)N1CCCC(N(C)c2nc(Nc3ccc(N4CCOCC4)cc3)c3c(c2F)CNC3=O)C1` (stereo not drawn) [Compound G-71, 6-((1-acryloylpiperidin-3-yl)(methyl)amino)-7-fluoro-4-(4-morpholin)-1H-pyrrolo[3,4-c]pyridine-3 (2H)-one], the half-maximal inhibitory concentration (IC50) at wild-type EGFR kinase came to 1590 nM. The molecule further showed a 50% inhibitory concentration (IC50) against βBTK Y223 of 3 nM. The IC50 against BTK WT is 5 nM. Moreover, in the data set “in vivo” (setting [1]), the area under the curve (AUC) came out at 606 ng·h/mL, the peak level (Cmax) was 533 ng/mL, the Tmax came to 4.8 min and the bioavailability amounted to 7.4%. For the same molecule, the half-life in “in vivo” (setting [1]) is 679 min. In addition, the “efficacy of the compound in mice compared with the compound without substituent on the nitrogen atom attached to the piperidine ring” value in “in vivo” (mouse, in vivo, po, 30 mg/kg) is given as “significantly lower”.

With `C=CC(=O)N1CCCC(N(C)c2nc(Nc3cc(C)ns3)c3c(c2F)CNC3=O)C1` (stereo not drawn) [Compound G-72, 6-((1-acryloylpiperidin-3-yl)(methyl)amino)-7-fluoro-4-(3-methylisothiazole-5-ylamino)-1H-pyrrolo[3,4-c]pyridine-3(2H)-one], the IC50 on wild-type EGFR kinase turned out to be 1660 nM. The same molecule registered an IC50 at βBTK Y223 of 4 nM. Besides, 5 nM corresponded to half-maximal inhibition against BTK WT (IC50). In the data set “in vivo” (setting [1]), the AUC came to 107 ng·h/mL, the peak level (Cmax) was 10.7 ng/mL, the Tmax turned out to be 15 min and the half-life is 679 min. The “efficacy of the compound in mice compared with the compound without substituent on the nitrogen atom attached to the piperidine ring” value in “in vivo” (mouse, in vivo, po, 30 mg/kg) is “significantly lower”.

As a reminder, the IC50 is the concentration that inhibits the measured activity by half. For orientation: AUC means concentration integrated over time. A low value points to less exposure. A word on the Cmax: it is the maximum level reached in the sampled fluid or tissue. As a reminder, the Tmax is the time at which the peak concentration occurs. One may read the bioavailability as the share of a dose that reaches the circulation, judged against a reference dose that is usually intravenous. A word on the half-life: it is how long it takes for the measured level to halve. A low value points to rapid decline.
